Measured values reported in ChEMBL document CHEMBL4130381, “Puromycin based inhibitors of aminopeptidases for the potential treatment of hematologic malignancies” (Eur J Med Chem, 2017).

How the values were obtained:
HL-60 = experiment: cells; conditions: Homo sapiens, HL-60, 72 h
Description: Antiproliferative activity against human HL60 cells after 72 hrs by MTT assay

GFP protein synthesis [1] = experiment: Toxicity in human HeLa cells expressing pCFE-GFP assessed as inhibition of GFP proetin synthesis at 25 uM incubated for 30 mins measured for 2 hrs by spectrophotometric method relative to control; format: cell-based
MOLT-4 = experiment: cells; conditions: Homo sapiens, MOLT-4, 72 h
Description: Antiproliferative activity against human MOLT4 cells after 72 hrs by MTT assay

[2] = Cytotoxicity against African green monkey Vero cells assessed as reduction in cell proliferation after 72 hrs by MTT assay; format: cell-based; conditions: chlorocebus sabaeus
GFP protein synthesis [3] = experiment: Toxicity in human HeLa cells expressing pCFE-GFP assessed as inhibition of GFP proetin synthesis at 10 uM incubated for 30 mins measured for 2 hrs by spectrophotometric method relative to control; format: cell-based
[4] = target: Puromycin-sensitive aminopeptidase (Homo sapiens, UniProt P55786); experiment: Inhibition of recombinant human N-terminal His6-MBP-tagged PSA expressed in Escherichia coli BL21 STAR (DE3) using 4-Ala-MNA as substrate measured for 30 mins by thefluorescence assay
Aminopeptidase N = Aminopeptidase N (Homo sapiens, UniProt P15144); experiment: Inhibition of recombinant human C-terminal His10-tagged APN (Lys69 to Lys967 residues) using Ala-AMC as substrate measured for 30 mins by fluorescence assay
Aminopeptidase N, sequence (P15144 whole entry): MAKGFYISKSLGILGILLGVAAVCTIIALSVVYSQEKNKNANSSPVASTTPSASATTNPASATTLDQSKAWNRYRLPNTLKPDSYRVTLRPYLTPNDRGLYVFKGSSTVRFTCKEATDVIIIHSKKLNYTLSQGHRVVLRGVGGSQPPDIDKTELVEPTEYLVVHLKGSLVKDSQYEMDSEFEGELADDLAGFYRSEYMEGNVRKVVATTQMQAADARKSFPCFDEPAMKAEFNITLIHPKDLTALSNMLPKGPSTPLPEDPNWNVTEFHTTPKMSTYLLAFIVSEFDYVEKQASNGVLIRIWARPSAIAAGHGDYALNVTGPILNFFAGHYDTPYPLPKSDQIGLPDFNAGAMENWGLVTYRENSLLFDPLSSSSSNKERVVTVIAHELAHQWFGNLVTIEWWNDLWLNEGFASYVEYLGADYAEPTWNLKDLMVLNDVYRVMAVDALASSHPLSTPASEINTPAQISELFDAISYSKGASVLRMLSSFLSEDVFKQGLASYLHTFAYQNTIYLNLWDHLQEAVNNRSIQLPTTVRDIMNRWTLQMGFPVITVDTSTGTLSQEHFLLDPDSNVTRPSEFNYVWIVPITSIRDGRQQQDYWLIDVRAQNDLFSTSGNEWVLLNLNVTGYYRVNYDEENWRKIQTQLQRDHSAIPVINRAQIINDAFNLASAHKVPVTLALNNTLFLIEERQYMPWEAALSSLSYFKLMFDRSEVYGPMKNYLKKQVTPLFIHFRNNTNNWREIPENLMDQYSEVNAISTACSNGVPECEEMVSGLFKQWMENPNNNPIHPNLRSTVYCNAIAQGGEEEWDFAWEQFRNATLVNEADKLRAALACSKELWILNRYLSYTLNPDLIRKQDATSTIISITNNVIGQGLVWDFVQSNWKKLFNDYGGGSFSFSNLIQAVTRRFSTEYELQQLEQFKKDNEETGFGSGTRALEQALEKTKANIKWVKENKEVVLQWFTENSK

Puromycin-sensitive aminopeptidase, sequence (P55786 whole entry): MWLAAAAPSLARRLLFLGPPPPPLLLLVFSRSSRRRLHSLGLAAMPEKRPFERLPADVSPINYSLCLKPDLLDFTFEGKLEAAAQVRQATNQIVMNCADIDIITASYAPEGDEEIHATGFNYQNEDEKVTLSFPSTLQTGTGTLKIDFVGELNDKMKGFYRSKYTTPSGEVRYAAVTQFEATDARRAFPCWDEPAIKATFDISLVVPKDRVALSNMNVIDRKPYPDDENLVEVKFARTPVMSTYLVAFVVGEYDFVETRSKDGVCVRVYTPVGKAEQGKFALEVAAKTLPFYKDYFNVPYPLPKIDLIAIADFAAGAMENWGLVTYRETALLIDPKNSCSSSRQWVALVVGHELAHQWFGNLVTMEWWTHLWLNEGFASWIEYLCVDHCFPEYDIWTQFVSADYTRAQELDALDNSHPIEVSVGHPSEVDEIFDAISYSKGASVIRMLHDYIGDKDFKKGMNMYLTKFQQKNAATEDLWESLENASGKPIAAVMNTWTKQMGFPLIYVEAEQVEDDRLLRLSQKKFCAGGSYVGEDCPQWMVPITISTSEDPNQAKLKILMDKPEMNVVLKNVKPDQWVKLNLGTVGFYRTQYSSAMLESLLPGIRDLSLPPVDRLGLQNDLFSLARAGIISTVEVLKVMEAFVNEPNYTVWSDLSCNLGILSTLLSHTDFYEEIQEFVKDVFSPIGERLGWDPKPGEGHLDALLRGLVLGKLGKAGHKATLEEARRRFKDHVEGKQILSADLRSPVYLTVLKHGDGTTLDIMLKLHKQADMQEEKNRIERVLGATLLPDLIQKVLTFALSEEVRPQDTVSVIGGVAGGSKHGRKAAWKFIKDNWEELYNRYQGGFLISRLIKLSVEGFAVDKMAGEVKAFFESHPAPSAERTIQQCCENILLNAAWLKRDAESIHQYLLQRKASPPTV

SMILES | EC50 (HL-60) | EC50 (MOLT-4) | IC50 [4] | IC50 (Aminopeptidase N) | inhibition at 30 min, 25 µM (GFP protein synthesis [1]) | CC50 at 72 h [2] | inhibition at 30 min, 10 µM (GFP protein synthesis [3])
CN(C)c1ncnc2c1ncn2[C@@H]1O[C@H](CO)[C@@H](NC(=O)[C@@H](N)CSC(c2ccccc2)c2ccccc2)[C@H]1O | 32 µM | 1.3 µM |  |  | 0% | > 100 µM | 
N[C@@H](CSC(c1ccccc1)c1ccccc1)C(=O)NCCCO | > 100 µM | > 100 µM |  |  | 0% | > 100 µM | 
CN(C)c1ncnc2c1ncn2[C@@H]1O[C@H](CO)[C@@H](NC(=O)[C@H](N)CSC(c2ccccc2)c2ccccc2)[C@H]1O | 34 µM | 11 µM |  |  | 0% | 46 µM | 
CN(C)c1ncnc2c1ncn2[C@@H]1O[C@H](CO)[C@@H](NC(=O)[C@@H](N)CSC(c2ccccc2)(c2ccccc2)c2ccccc2)[C@H]1O | > 100 µM | 31 µM |  |  | 0% | > 100 µM | 
CN(C)c1ncnc2c1ncn2[C@@H]1O[C@H](CO)[C@@H](NC(=O)[C@H](N)CSC(c2ccccc2)(c2ccccc2)c2ccccc2)[C@H]1O | 10 µM | 14 µM |  |  | 0% | 15 µM | 
CN(C)c1ncnc2c1ncn2[C@@H]1O[C@H](CO)[C@@H](NC(=O)[C@H](N)CSCc2ccccc2)[C@H]1O | 46 µM | 14 µM |  |  | 0% | 17 µM | 
CC(C)C[C@H](NC(=O)[C@@H](O)[C@H](N)Cc1ccccc1)C(=O)O [UBENIMEX] | > 100 µM | > 100 µM | 3.5 µM |  | 28% | 25 to 100 µM | 

More lines, main results first:

EC50 (HL-60) | EC50 (MOLT-4) | IC50 [4] | IC50 (Aminopeptidase N) | SMILES | inhibition at 30 min, 25 µM (GFP protein synthesis [1]) | CC50 at 72 h [2] | inhibition at 30 min, 10 µM (GFP protein synthesis [3])
0.19 µM | 0.18 µM |  |  | CN(C)c1ncnc2c1ncn2[C@@H]1O[C@H](CO)[C@@H](NC(=O)[C@@H](N)CSCc2ccccc2)[C@H]1O | 30% | 0.88 µM | 30%
0.41 µM | 0.39 µM |  |  | CN(C)c1ncnc2c1ncn2[C@@H]1O[C@H](CO)[C@@H](NC(=O)[C@@H](N)Cc2ccccc2)[C@H]1O | 59% | 3.2 µM | 
0.055 µM | 0.17 µM | 9.7 µM | 41 µM | COc1ccc(C[C@H](N)C(=O)N[C@H]2[C@@H](O)[C@H](n3cnc4c(N(C)C)ncnc43)O[C@@H]2CO)cc1 [PUROMYCIN] | 99% | 2.8 µM | 
4.7 µM | 2.1 µM | 0.26 µM | 0.68 µM | CC(C)C[C@@H](C(=O)N[C@H](C(=O)OC1CCCC1)c1ccccc1)[C@H](O)C(=O)NO [TOSEDOSTAT] | 35% | 13 µM | 
